Data on two compounds can be found in patent publication US9242012B2, “Methods for killing PSMA-expressing, taxane-resistant cancer cells” (PSMA Development Company, LLC, priority 2008, dated 2016).

The nature of data set [1]: Phase 1 dose-escalation study of PSMA ADC: pharmacokinetics (ELISA, LC/MS/MS). The format is in vivo, human. From the text: An open-label, dose-escalation phase 1 study of PSMA ADC (comprising MMAE) in patients with taxane refractory metastatic prostate cancer (metCRPC) was initiated. The objectives of the study were to (1) determine a maximum tolerated dose (MTD) for PSMA ADC administered once every 3 weeks; (2) assess the safety, tolerability, pharmacokinetics (PK) and pharmacodynamics (PD) of PSMA ADC across the dose-escalation range; (3) assess immunogenicity; and (4) assess antitumor activity. PSMA ADC in saline was administered by IV infusion Q3 W for up to 4 cycles. Subjects received either 0.4 mg/kg, 0.7 mg/kg, 1.1 mg/kg, or 1.8 mg/kg or will receive 2.0 mg/kg (at weeks 1, 4, 7 and 10).
Adverse events, PK, PSA, circulating tumor cells, clinical disease progression and immunogenic response to PSMA ADC continued to be assessed (FIGS. 19-21). Serum concentrations of PSMA ADC and total antibody were measured by an enzyme-linked immunosorbent assay (ELISA) method, and free MMAE was measured by liquid chromatography/mass spectrometry/mass spectrometry (LC/MS/MS) method. Individual patients report bone pain reduction as described below.
Background: An ELISA detects its analyte on a solid surface through an enzyme-linked reagent.

For data set [2], the system named is C4-2 cells. Nature of the data set: Single C4-2 xenograft mouse given docetaxel, then switched to PSMA ADC after relapse. In kind it is in vivo, nude mouse. The protocol: The in vivo therapeutic efficacy of PSMA ADC in a subcutaneous xenograft model of human prostate cancer was assessed. […] C4-2 is an androgen-independent human prostate cancer cell line. At day 11, the tumor size of each mouse was measured, by length and width in millimeters, using a caliper (Mitutoyo, Aurora, Ill.). The tumor volume was calculated using the following formula: Volume(mm^3)=[(Length)×(Width)^2]/2
It was given 12 doses of docetaxel, IP, at 12 mg/kg weekly. As shown in FIG. 3 and Table 2, the animal initially responded to the docetaxel treatment, the tumor volume was reduced to ˜300 mm^3 at day 60, but then it progressed to ˜800 mm^3 at day 100. The treatment of docetaxel was stopped, and PSMA ADC was given IV at 6 mg/kg for an additional 12 doses, weekly. […] PSMA ADC can treat tumors that fail docetaxel treatment.

The test system of data set [3] is C4-2 cells. Nature of the data set: C4-2 xenograft, PSMA ADC after docetaxel treatment failure (Example 3). The format is in vivo, athymic nude mice. The protocol:
An experiment (FIG. 10) was designed to evaluate PSMA ADC effectiveness after docetaxel treatment failure. […] At day 14, animals having a tumor volume between 100-200 mm^3 were randomized (randomization #1) into two treatment arms: (1) vehicle control (PBS buffer, n=10); (2) docetaxel at 2 mg/kg/IV weekly (n=50) according to tumor volume. The mean tumor volume was 138.0 and 138.1 mm^3 for the vehicle control and docetaxel treatment groups, respectively, at randomization.
All animals then received intravenous injections of PBS or docetaxel (Sigma, St. Louis, Mo.) at 2 mg/kg via tail vein in a volume of 0.1 mL. Tumor sizes were measured twice per week after tumor implantation, and the average tumor volume for the two groups before the second randomization was initiated were plotted (FIG. 11).
Animals were randomized into these two treatment subgroups continuously over the period of 28 days to 70 days post tumor implantation. By the end of day 70, there were 28 mice whose tumor volume had exceeded 400 mm^3, with 14 mice randomized into the PSMA ADC treatment subgroup (mean tumor volume of 695 mm^3 and 14 mice randomized into the continued docetaxel treatment subgroup (mean tumor volume of 642 mm^3 with a p-value of 0.28 (student t-test)).
The effect of PSMA ADC treatment on tumor growth after docetaxel failure was assessed by comparing tumor reduction after the second randomization. […]

The subject of data set [4] is C4-2 cells.
Protocol: Male athymic nude mice, 6-8 weeks old, obtained from Charles River Laboratories, Inc., were implanted with Matrigel subcutaneously into the right flank of each mouse with 5 million C4-2 cells (androgen-independent human prostate cancer cell line). At day 14, tumor size was measured by length and width in mm (millimeter). The volume was calculated using the formula: volume (mm^3)=[(length)×(width)^2]/2. […] Animals were dosed weekly through the tail vein.
When the tumor volume of an animal in the docetaxel treatment group exceeded 400 mm^3, this animal was randomized, at a 1:1 ratio, into one of the two treatment subgroups: one group continued to receive docetaxel at 2 mg/kg weekly (n=18), and the second group was switched to PSMA ADC treatment at 6 mg/kg/IV weekly (n=18). Mice whose tumors durably responded to docetaxel (≦400 mm^3) continued to receive docetaxel at 2 mg/kg/IV weekly. Treatment effects were assessed by measuring tumor volume and overall survival. Animal body weight was also measured. Animals with tumor size ≧2000 mm^3 were sacrificed.
Data set [5] has as its system hormone-refractory prostate cancer. As to conditions: cited from earlier work.

Structures are written as SMILES. Where a SMILES comes first, the peptide text is derived from it. [ ]: non-standard residue; d: D form. The star is where a group is joined. Dolaproine = CO[C@@H]([C@@H]1CCCN1)[C@@H](C)C(=O)O; Dil = CC[C@H](C)[C@H](NC)[C@@H](CC(=O)O)OC; X1 = C[C@@H](N*)[C@@H](O)c1ccccc1; NMeV = CN[C@H](C(=O)O)C(C)C

Take `CC[C@H](C)[C@@H]([C@@H](CC(=O)N1CCC[C@H]1[C@H](OC)[C@@H](C)C(=O)N[C@H](C)[C@@H](O)c1ccccc1)OC)N(C)C(=O)[C@@H](NC(=O)[C@@H](NC)C(C)C)C(C)C` [MMAE, monomethylauristatin norephedrine] (H-[NMeV]V[Dil][Dolaproine]-X1): the “exposure to free MMAE versus dose” value in data set [1] (after IV PSMA ADC 0.4-1.8 mg/kg) is recorded as “dose proportional”. Also, in data set [1] (after IV PSMA ADC, serum, LC/MS/MS), the “exposure to free MMAE relative to PSMA ADC” value is < 0.1%.
Turning to `CC(=O)O[C@@]12CO[C@@H]1C[C@H](O)[C@@]1(C)C(=O)[C@H](O)C3=C(C)[C@@H](OC(=O)[C@H](O)[C@@H](NC(=O)OC(C)(C)C)c4ccccc4)C[C@@](O)([C@@H](OC(=O)c4ccccc4)[C@H]21)C3(C)C` [docetaxel], the tumor volume in the data set on C4-2 cells [2] (day 60, docetaxel IP 12 mg/kg weekly, start ~500 mm^3 at day 21) was ~300 mm^3; in the data set on C4-2 cells [2] (day 100, progressed on docetaxel IP 12 mg/kg weekly), ~800 mm^3. Besides, the “tumor volume course after second randomization (docetaxel failure, >400 mm^3)” value in the data set with C4-2 cells [3] (PSMA ADC 6 mg/kg IV weekly or continued docetaxel 2 mg/kg) is “grew continuously”. In the data set on C4-2 cells [3] (docetaxel 2 mg/kg IV weekly, n=50, before second randomization, by day 21 p=0.025), the “tumor growth compared to vehicle control” value is recorded as “reduced tumor growth compared to control”. In the data set with C4-2 cells [4] (PSMA ADC (panel A) or continued docetaxel (panel B)), the “tumor size of individual animals after second randomization” value is given as “tumors continued to progress except in one animal”. The “average body weight change post second randomization” value in the data set with C4-2 cells [4] (PSMA ADC versus continued docetaxel, p<0.001) is “lost weight”. The “median survival post second randomization” value in the data set with C4-2 cells [4] (continued docetaxel 2 mg/kg weekly, n=18) is reported as 45 days. The “animals sacrificed due to large tumors (>2,000 mm^3)” value in the data set with C4-2 cells [4] (continued docetaxel treatment group, day 157 post second randomization) is reported as 16 of 18. In addition, the increase in survival in data set [5] (docetaxel (Taxotere) in combination with prednisone, advanced prostate cancer) is 2-3 months. Besides, the survival benefit in data set [5] (docetaxel in combination with prednisone) was 2.4 month.
